Reference: US6573078B1, “Compounds which inhibit HIV replication” (priority 1992, dated 2003)
Entries after “also recorded” stand apart in the source; their conditions may differ.

What was measured:
HIV-1LAI virus = assay: Peptide blockade of HIV-1 induced cell-cell fusion (syncytia formation; Molt4 cells co-cultivated with chronically infected CEM cells); assay type: cell-based; parameters: Anti-fusogenic activity (in words): dose or concentration left out as unconfirmed; conditions: for Inhibitory / anti-viral / biological activity (in words): cell fusion assay; for No. Syncytia/well: Table 3, ctrl cells only = 85; for Fusion: quantity of compound required for 90% reduction in number of syncytia: control = 90 syncytia
Experimental: The initial screen for antiviral activity of the peptides shown in FIG. 1 was for blockade of syncytium formation induced by overnight co-cultivation of uninfected Molt4 cells with chronically infected (HIV-1IIIB) CEM cells.
Approximately 7×10^4 Molt cells were incubated with 1×10^4 CEM cells chronically infected with the HIV-1LAI virus in 96 well plates (one-half area cluster plates;Costar. Cambridge, Mass.) in a final volume of […] culture media in accordance with known techniques (T. Matthews et al., Proc. Natl. Acad. Sci. U.S.A. 84, 5424 (1987)). Peptide inhibitors were added in a volume of […] and the cell mixtures were incubated for 24 hr at 37° C. At that time point, multinucleated giant cells were estimated by microscopic examination at a 40× magnification which allowed visualization of the entire well in a single field.

HIV-1LAI = assay: Peptide inhibition of infection by cell-free virus (neutralization assay; AA5 cells, RT activity readout); assay type: cell-based
Experimental: Cell cultures were maintained in 96-well microtiter plates for 8 days by addition of fresh medium (but no further addition of peptides) every other day. On the eighth day post-infection, supernatant was tested for reverse transcriptase activity as evidence of successful infection.
The micro RT assay was adapted from Goff et al. (J. Virol. 38, 239 (1981)) and Willey et al. (J. Virol. 62, 139 (1988)). Supernatants from virus/cell cultures are made 1% in Triton-X100. A […] sample of supernatant was added to 50 ml of RT cocktail in a 96 well U bottom microtiter plate and the samples incubated at […] for 90 min. The cocktail contained 75 mM KCl, 2 mM dithiothreitol, 5 mm Mgcl2l 5 mg/ml poly A (Pharmacia cat. No. 27-4110-01), 0.25 units/ml oligo dT (Pharmacia cat. No. 27-7858-01), 0.05% NP40, 50 mM Tris-HC1, pH 7.8, 0.5 mM non-radioactive dTTP, and 10 mCi/ml ^32p-dTTP (Amersham cat. No. PB.10167). After the incubation period, 40 ml of reaction mixture was applied to a Schleicher and Schuell NA45 membrane (or DE81 paper) saturated in 2×SSC buffer (0.3M NaCl and […]) held in a Schleicher and Schuell Minifold over one sheet of GB003 filter paper. Each well of the minifold was washed four times with […] 2×SSC. The membrane was removed from the minifold and washed 2 more times in a pyrex dish with an excess of 2×SSC. Finally the membrane was drained on absorbent paper, placed on Whatman #3 paper, covered with saran wrap, and exposed to film overnight.
The HIV1LAI virus was obtained from R. Gallo (see M. Popovic et al., Science 224, 497 (1984)) and propagated in CEM cells cultured in RPMI 1640 containing 10-% FCS. Supernatant from the infected CEM cells was passed through a […] and the infectious titer estimated in a microinfectivity assay using the AA5 cell line to support virus replication. For this purpose 25 ml of serially diluted virus was added to 75 ml AA5 cells at 2×10^5/ml in a 96 well microtiter plate. Each virus dilution was tested in triplicate. Cells were cultured for eight days by addition of fresh medium every other day. On day 8 post infection supernatant samples were tested for virus replication as evidenced by RT activity released to the supernatant in accordance with the procedure described above. The TCID50 was calculated according to the Reed and Muench formula in accordance with known techniques. See L. Reed et al., Amer. J. Hygiene 27, 493 (1938) . The titer of the HIV-1LAI stock used for these studies, as measured on the AA5 cell line, was approximately 1×10^7TCID50/ml. The two primary isolates were obtained from PBMCs of two infected donors, one from Brazil (HIV-1Br3) and the other Trinidad (HIV-1Q72775) by co-cultivation with PHA-blasted normal donor PBMCs in RPMI 1640 containing IL2. The infectious titers of the primary virus stocks were estimated by titration onto normal human PHA blasted PBMCs in a 96 well microtiter plate, again using RT activity released to the supernatant as evidence for successful infection. The infectious titer of both of these isolates was estimated to be approximately 1×10^3 TCID100/ml.
The peptides were next tested for blockade of infection by cell-free virus. The results shown in FIG. 3 are representative of several experiments in which the DP-107, 125, and (CS3) peptides were compared for potency in the blockade of HIVLAI, infection of AA5 cells. Each level of peptide was incubated in triplicate with about 500 TCID50 of virus and cells. After 7 days of culture, cell-free supernatant was tested for the presence of RT activity as a measure of successful infection.

[1] = Circular dichroism spectra / thermal melt (secondary structure in solution); assay type: physicochemical; conditions: for Conformation by CD spectra (in words): 37° C.
Experimental: (A) and 37° C. (B). Concentration dependence of the midpoint of the temperature dependence (Tm) of the CD signal (C). Tm corresponds to the maxima of the first derivative of the CD melt curve. The CD spectra were obtained in […], 150 mM sodium chloride buffer at pH 7.0.
Circular dichroism spectra were measured in 10 mM sodium phosphate, 150 mM sodium chloride, pH 7.0 buffer at approximately […] using a 1 cm pathlength cell on a Jobin/Yvon Autodichrograph Mark V CD spectrometer. Peptide concentrations were determined from A280 using Edlehoch's method (Biochemistry 6, 1948 (1967)).

[2] = target: the molecule itself; assay: CD thermal melt, concentration dependence of Tm (self-association)
[3] = EXP. 1, peptide concentration 1.5 micrograms/ml, 0 peptide = 89
[4] = EXP. 1, peptide concentration 3 micrograms/ml, 0 peptide = 89
[5] = EXP. 1, peptide concentration 6 micrograms/ml, 0 peptide = 89
[6] = EXP. 1, peptide concentration 12 micrograms/ml, 0 peptide = 89
[7] = EXP. 1, peptide concentration 25 micrograms/ml, 0 peptide = 89
[8] = EXP. 1, peptide concentration 50 micrograms/ml, 0 peptide = 89
[9] = peptide concentration 1.25 ug/ml on IIIB
[10] = peptide concentration 2.5 ug/ml on IIIB
[11] = peptide concentration 5 ug/ml on IIIB
[12] = peptide concentration 10 ug/ml on IIIB
[13] = peptide concentration 20 ug/ml on IIIB
[14] = peptide concentration 40 ug/ml on IIIB

## DP-31: peptide representing an overlapping immunodominant site of gp41 (SEQ ID NO: 5); sequence only in FIG. 1 (H-ERYLKDQQLLGIWGCSCKLICG-OH; cysteine pairing not given here)
HIV-1LAI virus; [3]
  Syncytia Number: 75
HIV-1LAI virus; [4]
  Syncytia Number: 90
HIV-1LAI virus; [5]
  Syncytia Number: 87
HIV-1LAI virus; [6]
  Syncytia Number: 78
HIV-1LAI virus; [7]
  Syncytia Number: 80
HIV-1LAI virus; [8]
  Syncytia Number: 85
HIV-1LAI virus
  Inhibitory / anti-viral / biological activity (in words): failed to show inhibitory activity

## NNLLRAIEAQQHLLQLTVWGIKQLQARILAVERYLKDQGGC [DP-129]
HIV-1LAI
  Neutraliz: quantity of compound required for 90% reduction in infectivity: <1 µg/mL
HIV-1LAI virus; [9]
  No. Syncytia/well: 0
HIV-1LAI virus; [10]
  No. Syncytia/well: 0
HIV-1LAI virus; [11]
  No. Syncytia/well: 0
HIV-1LAI virus; [12]
  No. Syncytia/well: 0
HIV-1LAI virus; [13]
  No. Syncytia/well: 0
HIV-1LAI virus; [14]
  No. Syncytia/well: 0
HIV-1LAI virus
  Fusion: quantity of compound required for 90% reduction in number of syncytia: <1 µg/mL

## NNLLRAIEAQQHLLQLTVWGIKQLQARILAV [DP-127]
HIV-1LAI
  Neutraliz: quantity of compound required for 90% reduction in infectivity: 23 µg/mL
HIV-1LAI virus; [9]
  No. Syncytia/well: 87
HIV-1LAI virus; [10]
  No. Syncytia/well: 53
HIV-1LAI virus; [11]
  No. Syncytia/well: 20
HIV-1LAI virus; [12]
  No. Syncytia/well: 0
HIV-1LAI virus; [13]
  No. Syncytia/well: 0
HIV-1LAI virus; [14]
  No. Syncytia/well: 0
HIV-1LAI virus
  Fusion: quantity of compound required for 90% reduction in number of syncytia: 7 µg/mL

## QQLLDVVKRQQEMLRLTVWGTKNLQARVTAIEKYLKDQ [DP-118]
HIV-1LAI virus; [9]
  No. Syncytia/well: 74
HIV-1LAI virus; [10]
  No. Syncytia/well: 78
HIV-1LAI virus; [11]
  No. Syncytia/well: 80
HIV-1LAI virus; [12]
  No. Syncytia/well: 77
HIV-1LAI virus; [13]
  No. Syncytia/well: 0
HIV-1LAI virus; [14]
  No. Syncytia/well: 0

## CGGNNLLRAIEAQQHLLQLTVWGIKQLQARILAVERYLKDQGGC [DP-130]
HIV-1LAI
  Neutraliz: quantity of compound required for 90% reduction in infectivity: <1 µg/mL
HIV-1LAI virus; [9]
  No. Syncytia/well: 47
HIV-1LAI virus; [10]
  No. Syncytia/well: 0
HIV-1LAI virus; [11]
  No. Syncytia/well: 0
HIV-1LAI virus; [12]
  No. Syncytia/well: 0
HIV-1LAI virus; [13]
  No. Syncytia/well: 0
HIV-1LAI virus; [14]
  No. Syncytia/well: 0
HIV-1LAI virus
  Fusion: quantity of compound required for 90% reduction in number of syncytia: 2 µg/mL

## IEAQQHLLQLTVWGIKQLQARILAVERYLKDQ [DP-123]
HIV-1LAI
  Neutraliz: quantity of compound required for 90% reduction in infectivity: >30 µg/mL
HIV-1LAI virus; [9]
  No. Syncytia/well: 80
HIV-1LAI virus; [10]
  No. Syncytia/well: 69
HIV-1LAI virus; [11]
  No. Syncytia/well: 76
HIV-1LAI virus; [12]
  No. Syncytia/well: 86
HIV-1LAI virus; [13]
  No. Syncytia/well: 55
HIV-1LAI virus; [14]
  No. Syncytia/well: 4
HIV-1LAI virus
  Fusion: quantity of compound required for 90% reduction in number of syncytia: 40 µg/mL

## CGGNNLLRAIEAQQHLLQLTVWGIKQLQARILAV [DP-136]
HIV-1LAI
  Neutraliz: quantity of compound required for 90% reduction in infectivity: >30 µg/mL
HIV-1LAI virus
  Fusion: quantity of compound required for 90% reduction in number of syncytia: >40 µg/mL

## NNLLRAIEAQQHLLQLTVWGPKQLQARILAVERYLKDQ (Ac-NNLLRAIEAQQHLLQLTVWGPKQLQARILAVERYLKDQ-NH2) [DP-121]
[1]
  Conformation by CD spectra (in words): random coil conformations; also recorded: failed to exhibit helix related signals
HIV-1LAI
  Neutraliz: quantity of compound required for 90% reduction in infectivity: >30 µg/mL
HIV-1LAI virus; EXP. 3, peptide concentration 2.5 micrograms/ml, 0 peptide = 76
  Syncytia Number: 68
HIV-1LAI virus; EXP. 3, peptide concentration 5 micrograms/ml, 0 peptide = 76
  Syncytia Number: 60
HIV-1LAI virus; EXP. 3, peptide concentration 10 micrograms/ml, 0 peptide = 76
  Syncytia Number: 65
HIV-1LAI virus; EXP. 3, peptide concentration 20 micrograms/ml, 0 peptide = 76
  Syncytia Number: 71
HIV-1LAI virus; EXP. 3, peptide concentration 40 micrograms/ml, 0 peptide = 76
  Syncytia Number: 69
HIV-1LAI virus; [14]
  No. Syncytia/well: 79
HIV-1LAI virus
  Inhibitory / anti-viral / biological activity (in words): did not exhibit anti-viral activity; also recorded: no sign of inhibitory activity
  Fusion: quantity of compound required for 90% reduction in number of syncytia: >40 µg/mL

## GIKQLQARILAVERYLKDQQ [DP-122]
HIV-1LAI
  Neutraliz: quantity of compound required for 90% reduction in infectivity: >30 µg/mL
HIV-1LAI virus; [14]
  No. Syncytia/well: 73
HIV-1LAI virus
  Fusion: quantity of compound required for 90% reduction in number of syncytia: >40 µg/mL

## LQARILAVERYLKDQQQ [DP-116, reference compound]
[1]
  Conformation by CD spectra (in words): random coil conformations
[1]; even at low temperatures and high concentrations
  Stable secondary structure by CD (in words): no evidence for stable secondary structure
HIV-1LAI
  Neutraliz: quantity of compound required for 90% reduction in infectivity: >30 µg/mL
HIV-1LAI; about 500 TCID50 of virus, RT activity in supernatant, FIG. 3
  Blockade of HIVLAI infection of AA5 cells (in words): no hint of anti-viral effect
HIV-1LAI virus
  Anti-fusogenic activity (in words): no evidence of anti-fusogenic activity
  Fusion: quantity of compound required for 90% reduction in number of syncytia: >40 µg/mL
HIV-1LAI virus; [3]
  Syncytia Number: 82
HIV-1LAI virus; [4]
  Syncytia Number: 89
HIV-1LAI virus; [5]
  Syncytia Number: 92
HIV-1LAI virus; [6]
  Syncytia Number: 93
HIV-1LAI virus; [7]
  Syncytia Number: 82
HIV-1LAI virus; [8]
  Syncytia Number: 89
HIV-1LAI virus; [14]
  No. Syncytia/well: 77

## NNLLRAIEAQQHLLQLTVWGSKQLQARILAVERYLKDQ [DP-139]
HIV-1LAI
  Neutraliz: quantity of compound required for 90% reduction in infectivity: >30 µg/mL
HIV-1LAI virus
  Fusion: quantity of compound required for 90% reduction in number of syncytia: >40 µg/mL

## NNLLRAIEAQQHLLQLTVWGAKQLQARILAVERYLKDQ [DP-140]
HIV-1LAI
  Neutraliz: quantity of compound required for 90% reduction in infectivity: 14 µg/mL
HIV-1LAI virus
  Fusion: quantity of compound required for 90% reduction in number of syncytia: 17 µg/mL

B1: DP-107 (peptide)
peptide: Ac-NNLLRAIEAQQHLLQLTVWGIKQLQARILAVERYLKDQ-NH2
notes: Synthetic peptide; also called peptide DP-107
[2]
  binding result: binds
